Data on five substances can be found in patent US20050106558A1, “Library of modified structural genes or capsid modified particles useful for the identification of viral clones with desired cell tropism” (priority 2001, published 2005).

One experiment deals with M-07e cells. Briefly: Transduction efficiency of rAAV-GFP clones on M-07e cells (FACS), with or without competitors. It is filed as cell-based, human. As for the experimental part:
Cells were seeded in 96 or 24 well plates (Nunc, Wiesbaden, Germany) and infected with rAAV-GFP clones, harvested 48 hrs p.i., washed and resuspended in 1 ml PBS. The percentage of GFP expressing cells was determined by flow cytometry with a Coulter Epics XL-MCL (Beckman Coulter, Krefeld, Germany). A minimum of 5000 cells were analyzed for each sample. Infectivity of the retargeted mutants was determined in the presence or absence of various concentrations of GRGDTP or GRGES peptides (Bachem, Bubendorf, Swiss) or 5 I.U./[II soluble heparin (Braun, Melsungen, Germany).
The selected capsid mutants were tested for their ability to transduce M-07e cells (FIG. 5a). At a genomic particle/cell ratio of 2×10^4, the mutants rAAV-M07A and rAAV-M07T transduced 50±2.5% and 47±2.7% of M-07e cells, respectively, representing a 100 and 94 fold increase in comparison to rAAV-wt transduction efficiency (0.5±0.01%). In contrast, rAAV-MecA and rAAV-MecB transduced M-07e cells with an efficiency of only 8.1±1.5% and 16±2%. The vector rAAV-L14, carrying an RGD motif inserted at position 587 (Girod A et al (1999) supra), was also compared. […] This highlighted the advantage of the combinatorial approach when compared with the simple insertion of an exogenous sequence.
We then examined whether the transduction of M-07e cells by rAAV-M07A and rAAV-M07T vectors was specifically mediated by the amino acids inserted at position 587. In the capsid of wt AAV, the region around position 587 is involved in the binding to heparan sulfate proteoglycan (HSPG) (Nicklin S A et al. (2001) Mol. Ther. 4, 174-81; Wu P. et al. (2000) J. Virol. 74, 8635-47), the primary receptor of AAV-2 (Summerford C and Samulski J (1998) J. Virol. 72, 1438-45). Pre-incubation with soluble heparin, an HSPG analogue and competitor, inhibited transduction of M-07e cells by rAAV-MecB but not by rAAV-M07A, rAAV-M07T and rAAV-MecA (FIG. 5a). […] This effect was concentration-dependent (FIG. 5b). […]

The target in experiment [1] is integrin receptor expressed on the surface of the target cells. Description: cell-based or functional assay.

As for GRGES, in the experiment with M-07e cells (M-07e cells, 450 μM), the “effect of inactive GRGES peptide on transduction” value is “no effect”.
Regarding RGDS, the “reduction of transduction efficiencies by competing RGDS peptide” value with M-07e cells (M07e cells incubated with 100 uM peptide prior to infection) is recorded as “more than 50%”.
“rAAV-M07A (RGDAVGV insertion) (from UniProt P03135 1-587; P03135 588-735)”: the reduction of M07e cell transduction after incubation of the cells with 100 uM RGDS peptide in experiment [1] was above 50%.
“rAAV-M07T (RGDTPTS insertion) (from UniProt P03135 1-587; P03135 588-735)” displayed a reduction of M07e cell transduction after incubation of the cells with 100 uM RGDS peptide in experiment [1] above 50%.
Regarding RGES, in the experiment with M-07e cells (M07e cells), the “effect of RGES peptide pre-incubation on infection” value is on record as “failed to inhibit”.
